Test results: ChEMBL document CHEMBL1132318, “Hydroxylated decahydroquinolines as ligands for the vesicular acetylcholine transporter: synthesis and biological evaluation” (J Med Chem, 1999)
pKi: −log10 of the molar value.

Assays:
[1] = Displacement of [3H]vesamicol from Vesicular Acetylcholine Transporter (VAChT)
[2] = Binding affinity against Sigma opioid receptor type 1 in guinea pig brain membranes using [3H](+)-pentazocine as radioligand

O[C@@H]1CCN(Cc2cccc(I)c2)C[C@H]1N1CCC(c2ccccc2)CC1 (racemic) gave a pKi [1] of 9.89.

In the case of O[C@@H]1CCCC[C@H]1N1CCC(c2ccccc2)CC1 [VESAMICOL], the pKi [2] was 7.59.
